Laboratory results taken from US20090018212A1, “METHODS OF RELIEVING STRESS” (Neuroscent Pty Ltd., priority 2005, published 2009).

Experiments:
[1] = system: sympathetic neurotransmission; test: Sympathetic neurotransmission in isolated vasa differentia after chronic stress of social deprivation and predator exposure; assay type: in vivo; conditions: mice, social deprivation and presence of predators 10 to 12 days; odour diluted in triethyl citrate
Description: The effects of odours on experimental animals exposed to stressors that cause chronic stress was assessed. Mice were divided into two groups, a control group exposed to minimal stress and a group exposed to severe stress by concurrent isolation and exposure to a predator. Each group was divided into sub-groups, one not exposed to any odour (control), one exposed to triethyl citrate vehicle (control), and the other groups exposed to an odour or a mixture of odours selected from cis-2-hexen-1-ol, trans-3-hexen-1-ol, trans-2-hexen-1-ol, cis-3-hexen-1-ol, trans-2-hexenal and α-pinene. Each odour compound was diluted (0.01 to 0.05% volume) with triethyl citrate. The solutions (0.5 mL) were placed on filter paper strips and placed within 30 cm of the animal cage. The response to stress was assessed using any or a combination of telemetry measurements, post-mortem electrophysiological studies and biochemical assays of blood samples.
Isolated vasa differentia were used to assess the effects of prolonged exposure to stress and its attenuation by odours. Following exposure of the mice to one of the stressors with or without odour, the level of neurotransmission from sympathetic varicosities was examined using standard focal extracellular recording methods (Lavidis and Bennett, 1992, 1993a, 1993b; D'Arbe et al., 2002). […] The extent of the increase reflects the level of stress the animal was exposed to during the previous 6-14 days (D'Arbe et al., 1999, D'Arbe et al., 2002).
Mice were exposed to two stressors concurrently, social deprivation and the presence of predators (rats in separate cages) for 10 to 12 days with or without the following odours or combination of odours, cis-2-hexen-1-ol, trans-2-hexen-1-ol, trans-3-hexen-1-ol, trans-2-hexenal, cis-3-hexen-1-ol, α-pinene and a combination of cis-3-hexen-1-ol and trans-2-hexenal. Two controls were used: mice not exposed to stress and mice exposed to stress together with triethyl citrate vehicle. The mice were monitored for up to 4 days after the stressors were removed.
Mice were placed in cages with one mouse per cage (social deprivation) in a room that contained cages with rats (predators) without odours (control). […] Box plots of the excitatory junction currents (EJC) obtained by electrophysiological methods are shown in FIG. 2 (control) and FIG. 3 (treated) and indicate the maximum EJC amplitude (Max), the distribution of 3rd quartiles (Q3), the median, the distribution of the 1st quartiles (Q1) and the distribution of the means. The data is from 16 animals from each treatment with at least 40 recording sites.

[2] = system: smooth muscle of mouse vas deferens; test: Organ bath safety test: success rate of transmission after application of the chemicals; assay type: cell-based; conditions: 1.0% vol; for function of smooth muscle (success rate of transmission): evaluated over 40 minutes
Description: Safety data for the components of the combination of the invention have been obtained by applying the chemicals to smooth muscle in organ bath experiments. The mouse vas deferens was isolated and placed in an electrophysiological organ bath. Extracellular recording of transmitter release from sympathetic varicosities was recorded before and after both application of each of the chemicals CH, TH or ap. The effect (“success rate”) of each of the chemicals was evaluated over 40 minutes. Success rate was measured as (number of successful transmissions/number of nerve stimulations)×100. Following this measurement, the chemicals were washed out.

humans = conditions: cited from earlier work
rats = conditions: cited from earlier work

SMILES	effectiveness of the odour or odour combination from most effective to least effective (mean excitatory junction potentials, FIG. 1) [1]	function of smooth muscle (success rate of transmission) [2]	effect on the smooth muscle at the high concentration used [2]	hypnotic effect (humans)	resting period (rats)
CCC/C=C\CO [cis-2-hexen-1-ol, reference compound]	cis-2-hexen-1-ol>trans-3-hexen-1-ol	–	–	–	–
CC/C=C\CCO [cis-3-hexen-1-ol]	cis-3-hexen-1-ol>trans-2-hexenal	did not significantly affect	–	–	–
CCC/C=C/CO [trans-2-hexen-1-ol, reference compound]	least effective	–	–	–	–
CCC/C=C/C=O [trans-2-hexenal]	trans-2-hexenal>α-pinene	did not significantly affect	relaxed smooth muscle cells	–	–
CC/C=C/CCO [trans-3-hexen-1-ol, reference compound]	trans-3-hexen-1-ol>trans-2-hexen-1-ol	–	–	–	–
CC1=CCC2CC1C2(C)C (stereo not drawn) [α-pinene]	α-pinene>cis-2-hexen-1-ol	did not significantly affect	–	hypnotic effect	prolong the resting period
